As usually defined, the pIC50 is −log10 of the IC50, conventionally taken in molar units.

pIC50: −log10 of the molar value.

This assay deals with T1, recombinant human GST-Syk (Homo sapiens, UniProt P43405).
T1 construct: purchased Carna Biosciences 08-176
Kind of assay: Homogeneous Time-Resolved Fluorescence (HTRF) assay for the recombinant human Syk enzyme. It counts as biochemical. Particulars: recombinant human GST-Syk 5 pM, ATP 25 μM, read-out: IC50. How it is done:
Syk inhibition of the compounds of Formula (I) may be determined using the following assay protocol: Homogeneous Time-Resolved Fluorescence (HTRF) Assay for the Recombinant Human Syk Enzyme: A recombinant GST-hSyk fusion protein was used to measure potency of compounds to inhibit human Syk activity. […] Final volume of the reaction was 10 μL. Phosphorylation of the peptide was allowed to proceed for 45' at room temperature. To quench the reaction and detect the phosphorylated product, 2 nM of a Europium-anti-phosphotyrosine antibody (Perkin Elmer #AD0161) and 70 nM SA-APC (Perkin-Elmer #CR130-100) were added together in 15 mM Tris pH 7.5, 40 mM EDTA, 0.01% tween 20. Final volume of the quenching solution was 10 μL. The resulting HTRF signal was measured after 30 minutes on a EnVision (Perkin-Elmer) reader using a time-resolved fluorescence protocol.
(In general: In TR-FRET formats the signal depends on donor and acceptor labels being close together.)
Consider `Cc1cc(Nc2cc(C(F)F)ccn2)nc(-c2ccc([C@](C)(O)[C@H]3CC[C@H](C(=O)OC(C)OC(=O)c4cnn(C)c4)CC3)nc2)c1` (single isomer, unassigned) [Example 3-2a], for which the pIC50 is 7.72.

With `Cc1cc(Nc2cc(C(F)F)ccn2)nc(-c2ccc([C@](C)(O)[C@H]3CC[C@H](C(=O)OC(C)OC(=O)c4cnn(C)c4)CC3)nc2)c1` (single isomer, unassigned) [Example 3-2b], the pIC50 is 7.65.

For `COCCN(C)C(=O)OC(C)OC(=O)[C@H]1CC[C@H]([C@@](C)(O)c2ccc(-c3cc(C)cc(Nc4cc(C(F)F)ccn4)n3)cn2)CC1` (single isomer, unassigned) [Example 4-1b], the pIC50 is 7.89.

As to `Cc1cc(Nc2cc(C(F)F)ccn2)nc(-c2ccc([C@](C)(O)[C@H]3CC[C@H](C(=O)OCOC(=O)OCC[S+](C)[O-])CC3)nc2)c1` (single isomer, unassigned) [Example 7-5], the pIC50 was 9.22.

With `Cc1cc(Nc2cc(C(F)F)ccn2)nc(-c2ccc([C@](C)(O)[C@H]3CC[C@H](C(=O)OCC(C)(C)O)CC3)nc2)c1` [Example 1-1, 2-Hydroxy-2-methylpropyl trans-4-[(1R)-1-(6-{[4-(difluoromethyl)pyridin-2-yl]amino}-4-methyl-2,3′-bipyridin-6′-yl)-1-hydroxyethyl]cyclohexanecarboxylate], the negative logarithm of the IC50 (pIC50) was 8.09. For `Cc1cc(Nc2cc(C(F)F)ccn2)nc(-c2ccc([C@](C)(O)[C@H]3CC[C@H](C(=O)OC[C@@H](O)CO)CC3)nc2)c1` [Example 1-3, (2S)-2,3-Dihydroxypropyl trans-4-[(1R)-1-(6-{[4-(difluoromethyl)pyridin-2-yl]amino}-4-methyl-2,3′-bipyridin-6′-yl)-1-hydroxyethyl]cyclohexanecarboxylate] the value was 8.60; for `Cc1cc(Nc2cc(C(F)F)ccn2)nc(-c2ccc([C@](C)(O)[C@H]3CC[C@H](C(=O)OC[C@H]4OC(O)[C@H](O)[C@@H](O)[C@@H]4O)CC3)nc2)c1` (stereo partly drawn) [Example 1-4, 6-O-({trans-4-[(1R)-1-(6-{[4-(difluoromethyl)pyridin-2-yl]amino}-4-methyl-2,3′-bipyridin-6′-yl)-1-hydroxyethyl]cyclohexyl}carbonyl)-D-glucopyranose], 9.10. For `Cc1cc(Nc2cc(C(F)F)ccn2)nc(-c2ccc([C@](C)(O)[C@H]3CC[C@H](C(=O)Oc4ccccc4)CC3)nc2)c1` [Example 1-6, Phenyl trans-4-[(1R)-1-(6-{[4-(difluoromethyl)pyridin-2-yl]amino}-4-methyl-2,3′-bipyridin-6′-yl)-1-hydroxyethyl]cyclohexanecarboxylate] the value was 8.01; for `CSCCOC(=O)[C@H]1CC[C@H]([C@@](C)(O)c2ccc(-c3cc(C)cc(Nc4cc(C(F)F)ccn4)n3)cn2)CC1` [Example 1-7, 2-(methylsulfanyl)ethyl trans-4-[(1R)-1-(6-{[4-(difluoromethyl)pyridin-2-yl]amino}-4-methyl-2,3′-bipyridin-6′-yl)-1-hydroxyethyl] cyclohexanecarboxylate], 7.74; for `Cc1cc(Nc2cc(C(F)F)ccn2)nc(-c2ccc([C@](C)(O)[C@H]3CC[C@H](C(=O)OCC[N+](C)(C)C)CC3)nc2)c1` [Example 1-10, 2-[({trans-4-[(1R)-1-(6-{[4-(difluoromethyl)pyridin-2-yl]amino}-4-methyl-2,3′-bipyridin-6′-yl)-1-hydroxyethyl]cyclohexyl}carbonyl)oxy]-N,N,N-trimethylethanaminium], 8.77. With `COc1ccc(OC(=O)[C@H]2CC[C@H]([C@@](C)(O)c3ccc(-c4cc(C)cc(Nc5cc(C(F)F)ccn5)n4)cn3)CC2)cc1` [Example 1-28, 4-methoxyphenyl trans-4-[(1R)-1-(6-{[4-(difluoromethyl)pyridin-2-yl]amino}-4-methyl-2,3′-bipyridin-6′-yl)-1-hydroxyethyl] cyclohexanecarboxylate] the figure was 8.14. For `Cc1cc(Nc2cc(C(F)F)ccn2)nc(-c2ccc([C@](C)(O)[C@H]3CC[C@H](C(=O)OCOC(=O)OCCOCc4ccccc4)CC3)nc2)c1` [Example 2-3, ({[2-(benzyloxy)ethoxy]carbonyl}oxy) methyl trans-4-[(1R)-1-(6-{[4-(difluoromethyl)pyridin-2-yl]amino}-4-methyl-2,3′-bipyridin-6′-yl)-1-hydroxyethyl]cyclo hexanecarboxylate], the negative logarithm of the IC50 (pIC50) was 8.21. For `CCOCCOCCOCCOC(=O)OCOC(=O)[C@H]1CC[C@H]([C@@](C)(O)c2ccc(-c3cc(C)cc(Nc4cc(C(F)F)ccn4)n3)cn2)CC1` [Example 2-5, 3-oxo-2,4,7,10,13-pentaoxapentadec-1-yl trans-4-[(1R)-1-(6-{[4-(difluoromethyl)pyridin-2-yl]amino}-4-methyl-2,3′-bipyridin-6′-yl)-1-hydroxyethyl]cyclo hexanecarboxylate] the value was 8.12; for `CCOCC(COCC)OC(=O)OCOC(=O)[C@H]1CC[C@H]([C@@](C)(O)c2ccc(-c3cc(C)cc(Nc4cc(C(F)F)ccn4)n3)cn2)CC1` [Example 2-8, ({[2-ethoxy-1-(ethoxymethyl)ethoxy]carbonyl}oxy) methyl trans-4-[(1R)-1-(6-{[4-(difluoromethyl)pyridin-2-yl]amino}-4-methyl-2,3′-bipyridin-6′-yl)-1-hydroxyethyl]cyclo hexanecarboxylate], 7.64; for `CSCCOC(=O)OCOC(=O)[C@H]1CC[C@H]([C@@](C)(O)c2ccc(-c3cc(C)cc(Nc4cc(C(F)F)ccn4)n3)cn2)CC1` [Example 2-10, ({[2-(methylsulfanyl)ethoxy]carbonyl}oxy) methyl trans-4-[(1R)-1-(6-{[4-(difluoromethyl)pyridin-2-yl]amino}-4-methyl-2,3′-bipyridin-6′-yl)-1-hydroxyethyl]cyclo hexanecarboxylate], greater than 9.30. `Cc1cc(Nc2cc(C(F)F)ccn2)nc(-c2ccc([C@](C)(O)[C@H]3CC[C@H](C(=O)OCOC(=O)OCCC(=O)N(C)C)CC3)nc2)c1` [Example 2-12, ({[3-(dimethylamino)-3-oxopropoxy]carbonyl}oxy)methyl trans-4-[(1R)-1-(6-{[4-(difluoromethyl)pyridin-2-yl]amino}-4-methyl-2,3′-bipyridin-6′-yl)-1-hydroxyethyl]cyclo hexanecarboxylate]: the pIC50 is 8.82. Regarding `Cc1cc(Nc2cc(C(F)F)ccn2)nc(-c2ccc([C@](C)(O)[C@H]3CC[C@H](C(=O)OCOC(=O)OCc4nccn4C)CC3)nc2)c1` [Example 2-13, ({[(1-methyl-1H-imidazol-2-yl)methoxy]carbonyl}oxy)methyl trans-4-[(1R)-1-(6-{[4-(difluoromethyl)pyridin-2-yl]amino}-4-methyl-2,3′-bipyridin-6′-yl)-1-hydroxyethyl]cyclo hexanecarboxylate], the pIC50 is 7.46.

With `CCOCCOCCOC(=O)OC(C)OC(=O)[C@H]1CC[C@H]([C@@](C)(O)c2ccc(-c3cc(C)cc(Nc4cc(C(F)F)ccn4)n3)cn2)CC1` (stereo partly drawn) [Example 2-15, 1-methyl-3-oxo-2,4,7,10-tetraoxadodec-1-yl trans-4-[(1R)-1-(6-{[4-(difluoromethyl)pyridin-2-yl]amino}-4-methyl-2,3′-bipyridin-6′-yl)-1-hydroxyethyl]cyclo hexanecarboxylate], the pIC50 is 7.48. With `Cc1cc(Nc2cc(C(F)F)ccn2)nc(-c2ccc([C@](C)(O)[C@H]3CC[C@H](C(=O)OC(C)OC(=O)c4cnn(C)c4)CC3)nc2)c1` (stereo partly drawn) [Example 3-2, 1-[({Trans-4-[(1R)-1-(6-{[4-(difluoromethyl)pyridin-2-yl]amino}-4-methyl-2,3′-bipyridin-6′-yl)-1-hydroxyethyl]cyclohexyl}carbonyl)oxy]ethyl 1-methyl-1H-pyrazole-4-carboxylate] the figure was 8.72.

On to `Cc1cc(Nc2cc(C(F)F)ccn2)nc(-c2ccc([C@](C)(O)[C@H]3CC[C@H](C(=O)OCOC(=O)C(C)(C)O)CC3)nc2)c1` [Example 3-3, [(2-Hydroxy-2-methylpropanoyl)oxy]methyl trans-4-[(1R)-1-(6-{[4-(difluoromethyl)pyridin-2-yl]amino}-4-methyl-2,3′-bipyridin-6′-yl)-1-hydroxyethyl]cyclohexanecarboxylate], for which the pIC50 is 8.64. For `Cc1cc(Nc2cc(C(F)F)ccn2)nc(-c2ccc([C@](C)(O)[C@H]3CC[C@H](C(=O)OCOC(=O)CO)CC3)nc2)c1` [Example 3-5, [(hydroxyacetyl)oxy] methyl trans-4-[(1R)-1-(6-{[4-(difluoromethyl)pyridin-2-yl]amino}-4-methyl-2,3′-bipyridin-6′-yl)-1-hydroxyethyl]cyclohexane carboxylate] the value was greater than 9.30. With `CC(=O)N[C@@H](CC(C)C)C(=O)OCOC(=O)[C@H]1CC[C@H]([C@@](C)(O)c2ccc(-c3cc(C)cc(Nc4cc(C(F)F)ccn4)n3)cn2)CC1` [Example 3-7, [({trans-4-[(1R)-1-(6-{[4-(difluoromethyl)pyridin-2-yl]amino}-4-methyl-2,3′-bipyridin-6′-yl)-1-hydroxyethyl]cyclohexyl}carbonyl)oxy]methyl N-acetyl-L-leucinate] the figure was 7.90; with `Cc1cc(Nc2cc(C(F)F)ccn2)nc(-c2ccc([C@](C)(O)[C@H]3CC[C@H](C(=O)OCOC(=O)c4cnn(C)c4)CC3)nc2)c1` [Example 3-8, [({trans-4-[(1R)-1-(6-{[4-(difluoromethyl)pyridin-2-yl]amino}-4-methyl-2,3′-bipyridin-6′-yl)-1-hydroxyethyl]cyclohexyl}carbonyl)oxy]methyl 1-methyl-1H-pyrazole-4-carboxylate], 8.08.

For the origin of these results see patent US20150299125A1, “PRODRUG BIPYRIDYLAMINOPYRIDINES AS SYK INHIBITORS” (MERCK SHARP & DOHME CORP., priority 2012, published 2015).
